Data reported in patent US8808743B2, “Benzonatate compositions and methods of use” (priority 2010, dated 2014).

Test: Simulated gastrointestinal dissolution testing (FloVitro apparatus, USP simulated gastric and intestinal fluids)
Assay type: physicochemical
Conditions: 100 mg dose
Protocol: The dissolution test used procedures devised by DOW Chemical using their proprietary FloVitro™ dissolution apparatus described in U.S. Pat. No. 6,799,123B2 and in the publication titled “FloVitro™ Technology” published online at:
The system used two different media that were combined during the process. The fluid flow rates were:
Simulated gastric fluid=7.7 ml/min
Simulated intestinal fluid=13.1 ml/mi
Total flow through analyzer=20.8 ml/min
To Cell 1: USP simulated gastric fluid (no pepsin)
To Cell 2: USP simulated intestinal fluid (pH 6.8) (SIF)
The samples tested were: • a) 100 mg dose neat benzonatate • b) 220.48 mg of IRP69H resinate: 87.97 mg benzonatate dose • c) 225.15 mg of IRP64H resinate: 102.21 mg benzonatate dose a) 100 mg Neat Benzonatate

CCCCNc1ccc(C(=O)OCCOCCOCCOCCOCCOCCOCCOCCOCCOC)cc1 [BENZ, benzonatate]
Concentration of Homolog in Effluent Total (120 min): 18.66 mg/L
Concentration of Homolog in Effluent n = 3 (120 min): 0.05 mg/L
Concentration of Homolog in Effluent n = 4 (120 min): 0.20 mg/L
Concentration of Homolog in Effluent n = 5 (120 min): 0.53 mg/L
Concentration of Homolog in Effluent n = 6 (120 min): 1.18 mg/L
Concentration of Homolog in Effluent n = 7 (120 min): 1.99 mg/L
Concentration of Homolog in Effluent n = 8 (120 min): 2.67 mg/L
Concentration of Homolog in Effluent n = 9 (120 min): 3.01 mg/L
Concentration of Homolog in Effluent n = 10 (120 min): 2.84 mg/L
Concentration of Homolog in Effluent n = 11 (120 min): 2.44 mg/L
Concentration of Homolog in Effluent n = 12 (120 min): 1.73 mg/L
Concentration of Homolog in Effluent n = 13 (120 min): 1.13 mg/L
Concentration of Homolog in Effluent n = 14 (120 min): 0.59 mg/L
Concentration of Homolog in Effluent n = 15 (120 min): 0.31 mg/L
Concentration of Homolog in Effluent n = 16 (120 min): 0.00 mg/L
Concentration of Homolog in Effluent n = 17 (120 min): 0.00 mg/L
Cumul. (cumulative release in effluent) (120 min): 81.10 mg
Concentration of Homolog in Effluent Total (180 min): 9.68 mg/L
Concentration of Homolog in Effluent n = 3 (180 min): 0.00 mg/L
Concentration of Homolog in Effluent n = 4 (180 min): 0.10 mg/L
Concentration of Homolog in Effluent n = 5 (180 min): 0.29 mg/L
Concentration of Homolog in Effluent n = 6 (180 min): 0.61 mg/L
Concentration of Homolog in Effluent n = 7 (180 min): 1.04 mg/L
Concentration of Homolog in Effluent n = 8 (180 min): 1.41 mg/L
Concentration of Homolog in Effluent n = 9 (180 min): 1.57 mg/L
Concentration of Homolog in Effluent n = 10 (180 min): 1.51 mg/L
Concentration of Homolog in Effluent n = 11 (180 min): 1.26 mg/L
Concentration of Homolog in Effluent n = 12 (180 min): 0.90 mg/L
Concentration of Homolog in Effluent n = 13 (180 min): 0.57 mg/L
Concentration of Homolog in Effluent n = 14 (180 min): 0.30 mg/L
Concentration of Homolog in Effluent n = 15 (180 min): 0.11 mg/L
Concentration of Homolog in Effluent n = 16 (180 min): 0.00 mg/L
Concentration of Homolog in Effluent n = 17 (180 min): 0.00 mg/L
Cumul. (cumulative release in effluent) (180 min): 90.57 mg
Concentration of Homolog in Effluent Total (240 min): 5.50 mg/L
Concentration of Homolog in Effluent n = 3 (240 min): 0.00 mg/L
Concentration of Homolog in Effluent n = 4 (240 min): 0.06 mg/L
Concentration of Homolog in Effluent n = 5 (240 min): 0.16 mg/L
Concentration of Homolog in Effluent n = 6 (240 min): 0.36 mg/L
Concentration of Homolog in Effluent n = 7 (240 min): 0.60 mg/L
Concentration of Homolog in Effluent n = 8 (240 min): 0.78 mg/L
Concentration of Homolog in Effluent n = 9 (240 min): 0.89 mg/L
Concentration of Homolog in Effluent n = 10 (240 min): 0.84 mg/L
Concentration of Homolog in Effluent n = 11 (240 min): 0.70 mg/L
Concentration of Homolog in Effluent n = 12 (240 min): 0.49 mg/L
Concentration of Homolog in Effluent n = 13 (240 min): 0.36 mg/L
Concentration of Homolog in Effluent n = 14 (240 min): 0.17 mg/L
Concentration of Homolog in Effluent n = 15 (240 min): 0.09 mg/L
Concentration of Homolog in Effluent n = 16 (240 min): 0.00 mg/L
Concentration of Homolog in Effluent n = 17 (240 min): 0.00 mg/L
Cumul. (cumulative release in effluent) (240 min): 95.70 mg
Concentration of Homolog in Effluent Total (300 min): 2.73 mg/L
Concentration of Homolog in Effluent n = 3 (300 min): 0.00 mg/L
Concentration of Homolog in Effluent n = 4 (300 min): 0.00 mg/L
Concentration of Homolog in Effluent n = 5 (300 min): 0.09 mg/L
Concentration of Homolog in Effluent n = 6 (300 min): 0.18 mg/L
Concentration of Homolog in Effluent n = 7 (300 min): 0.30 mg/L
Concentration of Homolog in Effluent n = 8 (300 min): 0.41 mg/L
Concentration of Homolog in Effluent n = 9 (300 min): 0.45 mg/L
Concentration of Homolog in Effluent n = 10 (300 min): 0.42 mg/L
Concentration of Homolog in Effluent n = 11 (300 min): 0.39 mg/L
Concentration of Homolog in Effluent n = 12 (300 min): 0.25 mg/L
Concentration of Homolog in Effluent n = 13 (300 min): 0.15 mg/L
Concentration of Homolog in Effluent n = 14 (300 min): 0.09 mg/L
Concentration of Homolog in Effluent n = 15 (300 min): 0.00 mg/L
Concentration of Homolog in Effluent n = 16 (300 min): 0.00 mg/L
Concentration of Homolog in Effluent n = 17 (300 min): 0.00 mg/L
Cumul. (cumulative release in effluent) (300 min): 98.15 mg
Concentration of Homolog in Effluent Total (360 min): 1.20 mg/L
Concentration of Homolog in Effluent n = 3 (360 min): 0.00 mg/L
Concentration of Homolog in Effluent n = 4 (360 min): 0.00 mg/L
Concentration of Homolog in Effluent n = 5 (360 min): 0.05 mg/L
Concentration of Homolog in Effluent n = 6 (360 min): 0.11 mg/L
Concentration of Homolog in Effluent n = 7 (360 min): 0.15 mg/L
Concentration of Homolog in Effluent n = 8 (360 min): 0.19 mg/L
Concentration of Homolog in Effluent n = 9 (360 min): 0.23 mg/L
Concentration of Homolog in Effluent n = 10 (360 min): 0.20 mg/L
Concentration of Homolog in Effluent n = 11 (360 min): 0.17 mg/L
Concentration of Homolog in Effluent n = 12 (360 min): 0.10 mg/L
Concentration of Homolog in Effluent n = 13 (360 min): 0.00 mg/L
Concentration of Homolog in Effluent n = 14 (360 min): 0.00 mg/L
Concentration of Homolog in Effluent n = 15 (360 min): 0.00 mg/L
Concentration of Homolog in Effluent n = 16 (360 min): 0.00 mg/L
Concentration of Homolog in Effluent n = 17 (360 min): 0.00 mg/L
Cumul. (cumulative release in effluent) (360 min): 99.32 mg
Concentration of Homolog in Effluent Total (420 min): 0.67 mg/L
Concentration of Homolog in Effluent n = 3 (420 min): 0.00 mg/L
Concentration of Homolog in Effluent n = 4 (420 min): 0.00 mg/L
Concentration of Homolog in Effluent n = 5 (420 min): 0.00 mg/L
Concentration of Homolog in Effluent n = 6 (420 min): 0.06 mg/L
Concentration of Homolog in Effluent n = 7 (420 min): 0.08 mg/L
Concentration of Homolog in Effluent n = 8 (420 min): 0.11 mg/L
Concentration of Homolog in Effluent n = 9 (420 min): 0.12 mg/L
Concentration of Homolog in Effluent n = 10 (420 min): 0.11 mg/L
Concentration of Homolog in Effluent n = 11 (420 min): 0.09 mg/L
Concentration of Homolog in Effluent n = 12 (420 min): 0.10 mg/L
Concentration of Homolog in Effluent n = 13 (420 min): 0.00 mg/L
Concentration of Homolog in Effluent n = 14 (420 min): 0.00 mg/L
Concentration of Homolog in Effluent n = 15 (420 min): 0.00 mg/L
Concentration of Homolog in Effluent n = 16 (420 min): 0.00 mg/L
Concentration of Homolog in Effluent n = 17 (420 min): 0.00 mg/L
Cumul. (cumulative release in effluent) (420 min): 99.74 mg
Concentration of Homolog in Effluent Total (480 min): 0.00 mg/L
Concentration of Homolog in Effluent n = 3 (480 min): 0.00 mg/L
Concentration of Homolog in Effluent n = 4 (480 min): 0.00 mg/L
Concentration of Homolog in Effluent n = 5 (480 min): 0.00 mg/L
Concentration of Homolog in Effluent n = 6 (480 min): 0.00 mg/L
Concentration of Homolog in Effluent n = 7 (480 min): 0.00 mg/L
Concentration of Homolog in Effluent n = 8 (480 min): 0.00 mg/L
Concentration of Homolog in Effluent n = 9 (480 min): 0.00 mg/L
Concentration of Homolog in Effluent n = 10 (480 min): 0.00 mg/L
Concentration of Homolog in Effluent n = 11 (480 min): 0.00 mg/L
Concentration of Homolog in Effluent n = 12 (480 min): 0.00 mg/L
Concentration of Homolog in Effluent n = 13 (480 min): 0.00 mg/L
Concentration of Homolog in Effluent n = 14 (480 min): 0.00 mg/L
Concentration of Homolog in Effluent n = 15 (480 min): 0.00 mg/L
Concentration of Homolog in Effluent n = 16 (480 min): 0.00 mg/L
Concentration of Homolog in Effluent n = 17 (480 min): 0.00 mg/L
